The source made the active and inactive calls. The calls are words filed in the database; no cut-off is given here.
How the values were obtained:
[1] = molecular target: T1, Muscarinic acetylcholine receptor M4 (Rattus norvegicus) (UniProt P08485); assay: Agonist activity at muscarinic M4 receptor in Sprague-Dawley rat hippocampal CA1 pyramidal neuron assessed as excitatory postsynaptic current amplitude at 5 uM by whole-cell electrophysiology relative to control; assay type: functional, tissue-based; conditions: Hippocampus
T1 sequence (whole entry): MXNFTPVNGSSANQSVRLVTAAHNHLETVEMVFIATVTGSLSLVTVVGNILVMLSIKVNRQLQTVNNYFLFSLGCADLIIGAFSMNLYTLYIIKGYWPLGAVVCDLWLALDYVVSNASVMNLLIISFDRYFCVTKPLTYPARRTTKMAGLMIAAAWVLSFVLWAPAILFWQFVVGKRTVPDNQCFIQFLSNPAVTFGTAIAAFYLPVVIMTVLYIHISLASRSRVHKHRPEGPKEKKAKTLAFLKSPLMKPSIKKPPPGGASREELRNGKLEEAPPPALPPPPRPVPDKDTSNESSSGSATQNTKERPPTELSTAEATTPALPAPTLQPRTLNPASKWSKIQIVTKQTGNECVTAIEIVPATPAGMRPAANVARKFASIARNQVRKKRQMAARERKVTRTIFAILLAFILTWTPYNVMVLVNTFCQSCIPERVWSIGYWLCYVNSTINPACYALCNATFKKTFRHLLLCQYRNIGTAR

[2] = molecular target: T1, Muscarinic acetylcholine receptor M4 (Rattus norvegicus); assay: Agonist activity at muscarinic M4 receptor in Sprague-Dawley rat hippocampal CA1 pyramidal neuron assessed as reduction of excitatory postsynaptic current at 1 uM by whole-cell electrophysiology relative to control; assay type: functional, tissue-based; set-up: scale not given: the % may be the effect or the level left; conditions: Hippocampus
[3] = molecular target: T1, Muscarinic acetylcholine receptor M4 (Rattus norvegicus); assay: Agonist activity at muscarinic M4 receptor in Sprague-Dawley rat hippocampal CA1 pyramidal neuron assessed as increase in carbachol-induced reduction in excitatory postsynaptic current at 5 uM by whole-cell electrophysiology relative to control; assay type: functional, tissue-based; set-up: scale not given: the % may be the effect or the level left; conditions: Hippocampus
CHO = assay: Antagonist activity at P2Y1 receptor in CHO cells assessed as calcium mobilization at 10 uM after 1 hr by fluorescence assay; assay type: functional, cell-based; conditions: Cricetulus griseus
[4] = molecular target: T1, Muscarinic acetylcholine receptor M4 (Rattus norvegicus); assay: Agonist activity at muscarinic M4 receptor in Sprague-Dawley rat hippocampal CA1 pyramidal neuron assessed as reduction of inhibitory postsynaptic current at 5 uM by whole-cell electrophysiology in presence of carbachol relative to control; assay type: functional, tissue-based; conditions: Hippocampus
[5] = molecular target: T1, Muscarinic acetylcholine receptor M4 (Rattus norvegicus); assay: Agonist activity at muscarinic M4 receptor in Sprague-Dawley rat hippocampal CA1 pyramidal neuron assessed as reduction of inhibitory postsynaptic current at 100 uM by whole-cell electrophysiology relative to control; assay type: functional, tissue-based; conditions: Hippocampus
[6] = molecular target: T2, Muscarinic acetylcholine receptor M4 (Mus musculus) (UniProt P32211); assay: Agonist activity at muscarinic M4 receptor in wild type mouse hippocampal CA1 pyramidal neuron assessed as increase in carbachol-induced reduction in excitatory postsynaptic current at 5 uM by whole-cell electrophysiology relative to control; assay type: functional, tissue-based; set-up: scale not given: the % may be the effect or the level left; conditions: Hippocampus
T2 sequence (whole entry): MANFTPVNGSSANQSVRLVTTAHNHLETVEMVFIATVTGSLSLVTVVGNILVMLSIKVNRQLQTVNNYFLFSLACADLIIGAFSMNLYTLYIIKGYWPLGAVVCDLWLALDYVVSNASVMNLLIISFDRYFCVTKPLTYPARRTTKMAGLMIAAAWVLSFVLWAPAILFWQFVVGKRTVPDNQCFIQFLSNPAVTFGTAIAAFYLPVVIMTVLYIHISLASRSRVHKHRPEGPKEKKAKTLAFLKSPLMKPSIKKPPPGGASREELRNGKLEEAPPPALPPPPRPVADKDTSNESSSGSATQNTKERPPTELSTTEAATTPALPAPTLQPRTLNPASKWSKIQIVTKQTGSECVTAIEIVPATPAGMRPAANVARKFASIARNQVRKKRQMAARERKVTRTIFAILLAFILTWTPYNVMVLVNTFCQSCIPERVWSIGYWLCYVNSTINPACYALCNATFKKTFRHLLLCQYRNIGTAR

[7] = molecular target: T2, Muscarinic acetylcholine receptor M4 (Mus musculus); assay: Agonist activity at muscarinic M4 receptor in wild type mouse hippocampal CA1 pyramidal neuron assessed as reduction of excitatory postsynaptic current at 2 uM by whole-cell electrophysiology relative to control; assay type: functional, tissue-based; conditions: Hippocampus
[8] = Agonist activity at muscarinic receptor in M4 receptor knock out mouse hippocampal CA1 pyramidal neuron assessed as reduction of inhibitory postsynaptic current amplitude at 2 uM by whole-cell electrophysiology in presence of carbachol relative to control; assay type: functional; conditions: Hippocampus
[9] = molecular target: T1, Muscarinic acetylcholine receptor M4 (Rattus norvegicus); assay: Agonist activity at muscarinic M4 receptor in Sprague-Dawley rat hippocampal CA1 pyramidal neuron assessed as reduction of excitatory postsynaptic current at 100 uM by whole-cell electrophysiology relative to control; assay type: functional, tissue-based; conditions: Hippocampus
[10] = Agonist activity at muscarinic receptor in M4 receptor knock out mouse hippocampal CA1 pyramidal neuron assessed as reduction of excitatory postsynaptic current amplitude at 100 uM by whole-cell electrophysiology relative to control; assay type: functional; conditions: Hippocampus
[11] = molecular target: T3, Muscarinic acetylcholine receptor M4 (Rattus norvegicus, UniProt P08485); assay: Allosteric activation of rat recombinant muscarinic M4 receptor expressed in CHO cells assessed as potentiation of 10 uM acetylcholine-induced calcium mobilization after 1 hr by fluorescence assay; assay type: functional, cell-based
T3 sequence (P08485 whole entry): T1 sequence (whole entry)

[12] = molecular target: Muscarinic acetylcholine receptor M3 (Rattus norvegicus) (UniProt P08483); assay: Allosteric activation of rat recombinant muscarinic M3 receptor expressed in CHO cells assessed as potentiation of acetylcholine-induced calcium mobilization at 10 uM after 1 hr by fluorescence assay; assay type: functional, cell-based
[13] = molecular target: T4, Muscarinic acetylcholine receptor M5 (Rattus norvegicus) (UniProt P08911); assay: Antagonist activity at rat recombinant muscarinic M5 receptor expressed in CHO cells assessed as calcium mobilization at 10 uM after 1 hr by fluorescence assay; assay type: functional, cell-based
T4 sequence (whole entry): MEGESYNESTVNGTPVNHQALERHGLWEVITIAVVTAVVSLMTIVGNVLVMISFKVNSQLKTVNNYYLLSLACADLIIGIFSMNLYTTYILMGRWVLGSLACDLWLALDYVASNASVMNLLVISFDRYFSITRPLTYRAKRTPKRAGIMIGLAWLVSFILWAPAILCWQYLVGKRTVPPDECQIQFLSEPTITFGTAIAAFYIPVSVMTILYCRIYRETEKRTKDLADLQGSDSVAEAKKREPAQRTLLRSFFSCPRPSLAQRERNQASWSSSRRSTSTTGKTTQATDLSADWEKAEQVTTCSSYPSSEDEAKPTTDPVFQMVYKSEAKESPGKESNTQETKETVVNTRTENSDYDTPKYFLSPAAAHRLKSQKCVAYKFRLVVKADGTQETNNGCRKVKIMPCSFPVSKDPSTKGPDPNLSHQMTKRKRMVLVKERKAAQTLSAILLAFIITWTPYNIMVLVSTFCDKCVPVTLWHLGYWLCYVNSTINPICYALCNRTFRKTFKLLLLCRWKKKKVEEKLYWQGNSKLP

[14] = molecular target: T1, Muscarinic acetylcholine receptor M4 (Rattus norvegicus); assay: Displacement of [3H]NMS from rat recombinant muscarinic M4 receptor expressed in CHO cells up to 30 uM after 2 hrs by microplate scintillation counting; assay type: cell-based

Muscarinic acetylcholine receptor M3 (Rattus norvegicus), sequence (P08483 whole entry, looked up): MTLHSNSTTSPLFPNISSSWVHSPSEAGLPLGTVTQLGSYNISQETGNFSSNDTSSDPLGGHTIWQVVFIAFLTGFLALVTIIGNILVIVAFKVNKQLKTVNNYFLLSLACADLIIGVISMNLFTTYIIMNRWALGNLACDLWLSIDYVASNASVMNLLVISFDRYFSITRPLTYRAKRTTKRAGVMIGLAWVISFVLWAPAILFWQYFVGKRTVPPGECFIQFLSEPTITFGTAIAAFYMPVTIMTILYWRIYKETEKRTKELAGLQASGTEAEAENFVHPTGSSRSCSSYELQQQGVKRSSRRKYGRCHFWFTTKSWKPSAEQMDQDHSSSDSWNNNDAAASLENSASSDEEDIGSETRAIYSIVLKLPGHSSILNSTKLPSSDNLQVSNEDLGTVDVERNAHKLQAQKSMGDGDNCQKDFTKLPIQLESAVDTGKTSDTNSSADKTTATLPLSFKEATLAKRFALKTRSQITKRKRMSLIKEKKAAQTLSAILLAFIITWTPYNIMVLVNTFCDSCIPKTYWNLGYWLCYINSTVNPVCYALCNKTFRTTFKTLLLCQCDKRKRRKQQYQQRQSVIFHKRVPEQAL

`Cc1cc(C)c2c(N)c(C(=O)NCc3ccc(Cl)cc3)sc2n1` gave an Activity [1] of 108%, an Activity [2] of 60.5% and an Activity [3] of 36.9%. For the same compound, the Activity (CHO) was “inactive”, the inhibition [4] was 61.7% and the inhibition [5] was 10.9%. It also gave an Activity [6] of 39.8%, an inhibition [7] of 53.7% and an inhibition at 2 µM [8] of 60.2%. It also gave an inhibition [9] of 16.1%, an inhibition at 100 µM [10] of 21.1% and an EC50 [11] of 400 nM. The Activity [12] was “inactive”, the Activity [13] was “inactive” and the Activity [14] was “inactive”.
